Reference: PubChem BioAssay AID179 (DTP/NCI, 2004)
The source made the active and inactive calls.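 How the source made its calls: active means compounds giving half or more protection of infected cells from virus-caused growth loss, again on retest; inactive means the rest.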

System: CEM cells HIV-1 protection, formazan growth assay
Experiment: NCI AIDS Antiviral Assay
Conditions: for IC50: measured here: growth of uninfected CEM cells
Outline: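 Category rules: moderately active means at least 50% protection on retest, and confirmed active means 100% protection reproducibly. The underlying data came from a formazan growth assay in HIV-1-infected CEM cells.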

| SMILES | EC50 | IC50 | outcome |
| --- | --- | --- | --- |
| CCN(CC)P1(=S)OCC(C)O1 (stereo not given) | > 324 µM | 309 µM |  |
| COC(=O)N/N=C(\C)CC(=O)Nc1ccc(Cl)cc1 | > 91.2 µM | > 91.2 µM |  |
| CC(=O)Nc1ncc2ccccc2c1-c1ccc(NC(=O)CN(CCO)CCO)cc1 | > 200 µM | > 200 µM |  |
| Cc1ccc(C(=O)Nc2ccc(CP(=O)(O)O)cc2)cc1NC(=O)Nc1cc(C(=O)Nc2ccc(CP(=O)(O)O)cc2)ccc1C | > 50.1 µM | > 50.1 µM |  |
| CC1=NCCC[N-]CC[N-]CCCN=C1C.[Ni+2].[O-][Cl+3]([O-])([O-])O | > 200 µM | > 200 µM |  |
| O=C(O)CCSC(=O)Nc1ccccc1F |  |  | inactive |
| COc1cccc(Nc2nc(NS(=O)(=O)c3cc(C)c(Cl)cc3S)n[nH]2)c1 | > 200 µM | 158 µM |  |
| Cc1c(C)c2cc3c(=O)ccoc3c(C)c2oc1=O | > 20.4 µM | > 20.4 µM |  |
| O=c1c(-c2ccc3c(c2)OCO3)coc2cc(O)ccc12 | > 200 µM | > 200 µM |  |
| Cc1ccc(C2=Nc3ccccc3NC(=O)C2)cc1 | 20.4 µM | 75.9 µM |  |
| CC1(C)O[C@@H](CP(c2ccc3ccccc3c2)c2ccc3ccccc3c2)[C@H](CP(c2ccc3ccccc3c2)c2ccc3ccccc3c2)O1 | > 200 µM | 129 µM |  |
| O=[N+]([O-])c1ccc2nc(/C=C(\O)c3ccccc3)c(/C=C(\O)c3ccc(Cl)cc3)nc2c1 | > 100 µM | 11 µM |  |
| O=C(/C=C/NC(=O)OCc1ccccc1)OCc1ccccc1 | > 200 µM | > 200 µM |  |
| CNCS(=O)(=O)O | > 200 µM | 97.7 µM |  |
| CCN1CN(c2ccccc2)C2(CCN(CC(CC3OCCO3)c3ccc(F)cc3)CC2)C1=O (stereo not given) | > 200 µM | 7.24 µM |  |
| Nc1nc(Cl)nc(Cl)n1 | > 200 µM | > 200 µM |  |
| COC(=O)/C(=N/NC(C)(C)C)C(C(=O)OC)C(=O)C(=O)Nc1nc2ccc([N+](=O)[O-])cc2s1 (stereo not given) | > 53.7 µM | > 53.7 µM |  |
| Clc1ccc(CCn2ccc3ccccc32)c(Cl)c1 | > 200 µM | > 200 µM |  |
| COC(=O)C(C(=O)C(=O)Nc1ccc(C(F)(F)F)cc1[N+](=O)[O-])c1csc(-n2nc(-c3ccccc3)cc2-c2ccccc2)n1 (stereo not given) | > 53.7 µM | 39.8 µM |  |

| SMILES | EC50 | IC50 | outcome |
| --- | --- | --- | --- |
| CC(=O)c1c2c(cc3c1CC1(Cc4cc5c(cc4C1)CCC5)C3)CCC2 | > 200 µM | > 200 µM |  |
| FC(F)(F)C[P+](c1ccccc1)(c1ccccc1)c1ccccc1 | > 200 µM | 46.8 µM |  |
| O=C(Cn1c(-c2ccccc2)cc2ccccc21)N1CCCC1 | > 200 µM | 126 µM |  |
| CCCCCCCCCN1CCC(=O)C(C(=O)OC)C1 (stereo not given) | > 200 µM | 4.68 µM |  |
| O=C1CN2C=CC=CC2=NN1 | > 603 µM | 407 µM |  |
| CC(C)(C)N=NC(C)(C)N=C=O | > 251 µM | > 251 µM |  |
| COc1ccc2nc(/N=C/N(C)C)sc2c1 | > 200 µM | > 200 µM |  |
| CC12C3C4C1C1C2C3C41CO (stereo not given) | > 200 µM | > 200 µM |  |
| CC1(C)C2CCC1(C)C(O)(c1ccccc1)C2=O (stereo not given) | > 91.2 µM | > 91.2 µM |  |
| C1CCC(N=C(NC2CCCCC2)N2CCOCC2)CC1 | > 200 µM | 135 µM |  |
| COC(=O)[C@@]12CCCC(=O)[C@@H]1[C@H]1CCC[C@H]12 | 112 µM | > 200 µM |  |
| CCC1=CC2CN3CCc4c([nH]c5ccccc45)[C@@](C(=O)OC)(C2)[C@@H]13 |  |  | inactive |
| Cc1ccc2c3ccc4c(c3n(C)c2c1)C(=O)C=CC4=O | > 100 µM | 1.82 µM |  |
| O=[N+]([O-])c1cc(Cl)ccc1Sc1ccccc1 |  |  | inactive |
| CCOP(=O)(OCC)Oc1c(OC)c2[nH]c(C(=O)OC)cc2c2c(C(=O)O)c[nH]c12 | > 200 µM | > 200 µM |  |
| O=C(Nc1ncnc2c1ncn2C1OC(CO)CC1F)c1ccccc1 (stereo not given) |  |  | inactive |
| CC(=O)N(C(C)=O)n1c(Cc2ccc(Cl)cc2)nn(C(C)=O)c1=O | > 200 µM | > 200 µM |  |
| NC(=Nc1c([N+](=O)[O-])cnc2ccccc12)N1CCOCC1 | > 200 µM | 126 µM |  |
